Results: PubChem BioAssay (NCI)
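Tested at 5 concentrations; 48 h exposure; 96-well plates; endpoints linearly interpolated, else capped at highest concentration. GI50 = concentration required for 50% inhibition of growth. At the TGI there is no net growth.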

What was measured:
Assay in all cases: inhibition of tumour cell growth, NCI panel, 48 h
K-562 leukemia = tested on: K-562 leukemia
T-47D breast = tested on: T-47D breast
ACHN renal = tested on: ACHN renal
M14 melanoma = tested on: M14 melanoma
SF-268 CNS = tested on: SF-268 CNS
U251 CNS = tested on: U251 CNS
UACC-62 melanoma = tested on: UACC-62 melanoma
NCI-H226 lung = tested on: NCI-H226 lung
TK-10 renal = tested on: TK-10 renal
LOX IMVI melanoma = tested on: LOX IMVI melanoma

| Compound | TGI (K-562 leukemia) [µM] | TGI (T-47D breast) [µM] | TGI (ACHN renal) [µM] | TGI (M14 melanoma) [µM] | TGI (SF-268 CNS) [µM] | TGI (U251 CNS) [µM] | TGI (UACC-62 melanoma) [µM] | TGI (NCI-H226 lung) [µM] | TGI (TK-10 renal) [µM] | TGI (LOX IMVI melanoma) [µM] | GI50 (K-562 leukemia) [µM] | GI50 (ACHN renal) [µM] | GI50 (M14 melanoma) [µM] | GI50 (SF-268 CNS) [µM] | GI50 (U251 CNS) [µM] | GI50 (UACC-62 melanoma) [µM] | GI50 (NCI-H226 lung) [µM] | GI50 (TK-10 renal) [µM] | GI50 (LOX IMVI melanoma) [µM] | GI50 (T-47D breast) [µM] |
| --- | --- | --- | --- | --- | --- | --- | --- | --- | --- | --- | --- | --- | --- | --- | --- | --- | --- | --- | --- | --- |
| O=C1c2cc([N+](=O)[O-])cc3cc([N+](=O)[O-])cc(c23)C(=O)N1CCCNCCNCCCN1C(=O)c2cc([N+](=O)[O-])cc3cc([N+](=O)[O-])cc(c23)C1=O | 14.9 | 6.72 | > 23.2 | 3.31 | 2.03 | 3.49 | 1.48 | 2.57 | 7.04 | – | – | – | – | – | – | – | – | – | – | – |
| COC(=O)/C(=N\NC(=S)NN)C(C(=O)OC)C(=O)C(=O)Nc1cccc(C(F)(F)F)c1 (configuration not stated) | – | > 100 | > 100 | > 100 | > 100 | > 100 | > 100 | > 100 | > 100 | > 100 | – | – | – | – | – | – | – | – | – | – |
| Oc1ccc(-c2cn3cc(Cl)sc3n2)cc1 | > 100 | – | 24.6 | 56.8 | 80.2 | > 100 | 41.6 | 48.5 | 84.9 | 86.2 | 36.7 | 3.98 | 20.1 | 12.2 | > 100 | 5.36 | 5.49 | 40.4 | 32.3 | – |
| CN(C)C1=NC2=S(SC(Nc3ccccc3)=N2)S1 (configuration not stated) | > 100 | – | > 100 | > 100 | > 100 | > 100 | > 100 | > 100 | 85.5 | > 100 | – | – | – | – | – | – | – | – | – | – |
| Cc1c(C(=O)/C=C/c2c(Cl)cccc2Cl)c(=O)n(-c2ccccc2)n1C | – | – | > 100 | – | > 100 | 2.98 | > 100 | 39.1 | > 100 | 41.8 | – | – | – | – | – | – | – | – | – | – |
| N#C/C(=C1C=C/C(=N\O)C(Cl)=C\1)c1ccccc1 | 13.5 | 11.3 | 11.6 | 14.2 | 14.3 | – | 18.1 | 12.4 | 16.4 | – | 2.27 | 0.733 | 3.2 | 2.19 | – | 2.8 | 3.13 | 5.12 | – | 0.6 |
| O=C(O)c1cccc2cccc(C(=O)O)c12.[Hg] | 15.5 | – | 31.8 | 27 | 26.5 | 26.8 | > 100 | 40.7 | 34.6 | 27.9 | 1.5 | 17.7 | 14 | 11.5 | 12.2 | > 100 | 21.1 | 20.3 | 14.7 | – |
| COC1OC(COS(=O)(=O)c2ccc(C)cc2)C(O)C(OS(=O)(=O)c2ccc(C)cc2)C1OS(=O)(=O)c1ccc(C)cc1 (configuration not stated) | > 100 | – | > 100 | > 100 | > 100 | > 100 | – | > 100 | – | – | – | – | – | – | – | – | – | – | – | – |
| CCOC(=O)NC(=O)c1cn(CCCOC(=O)NCCCCCCNC(=O)OCCCn2cc(C(=O)NC(=O)OCC)c(=O)[nH]c2=O)c(=O)[nH]c1=O | 39.8 | – | 32.9 | 35.4 | – | 33.6 | 38.8 | – | 68.5 | > 100 | – | – | – | – | – | – | – | – | – | – |
| NC(=O)CCC(NC(=O)Cc1ccccc1)C(=O)O (configuration not stated) (tested in a mixture with another compound) | > 8130 | – | – | > 8130 | > 8130 | > 8130 | > 8130 | – | > 8130 | – | – | – | – | – | – | – | – | – | – | – |
| CC1=NC(C(C)C)C(=O)O1 (configuration not stated) | > 100 | – | > 100 | > 100 | > 100 | > 100 | > 100 | > 100 | > 100 | – | – | – | – | – | – | – | – | – | – | – |
| N#Cc1cc(N(CCCl)CCCl)c([N+](=O)[O-])cc1[N+](=O)[O-] | > 100 | 57.2 | > 100 | > 100 | > 100 | > 100 | > 100 | – | > 100 | > 100 | – | – | – | – | – | – | – | – | – | – |
| CC(=O)OC1CC2C(C)(C)C(=O)C=C[C@]2(C)C2CCC3(C)C(c4ccoc4)[C@@H](O)[C@H]4O[C@]43[C@]12C (some centres not stated) | 39.5 | – | 50 | 37.7 | 51.8 | 27.8 | 32.5 | 33.5 | 88.7 | 31.3 | – | – | – | – | – | – | – | – | – | – |
| COc1cc(Nc2nc3cc(C(F)(F)F)ccc3nc2-c2ccccc2)cc(OC)c1OC | > 100 | – | > 100 | > 100 | > 100 | > 100 | > 100 | > 100 | 77 | > 100 | – | – | – | – | – | – | – | – | – | – |
| CC1=CC(=O)c2c(C=O)c(O)c(O)c(C(C)C)c2C1=O | > 100 | – | 32.6 | > 100 | 77.2 | 47.4 | 56.4 | 54.8 | – | 27.6 | – | – | – | – | – | – | – | – | – | – |
| O=C1NC(c2c(Cl)cccc2Cl)Nc2ccccc21 (configuration not stated) | – | > 100 | > 100 | > 100 | > 100 | > 100 | > 100 | > 100 | > 100 | > 100 | – | – | – | – | – | – | – | – | – | – |
| COC(=O)C1=C(CS(=O)c2ccc([N+](=O)[O-])cc2[N+](=O)[O-])ON(C)C1c1ccccc1 (configuration not stated) | 34.5 | – | > 100 | > 100 | > 100 | > 78.6 | > 75.2 | > 100 | > 74.8 | 35 | – | – | – | – | – | – | – | – | – | – |
| Cc1ccc(-c2nc(N)c(C#N)c3c2CCOc2c-3ccc3ccccc23)cc1 | > 40.8 | 45.9 | > 36.1 | > 22.9 | 31.6 | 4.25 | > 100 | > 100 | 13.6 | – | 0.0614 | 0.847 | 0.377 | 0.356 | 0.222 | 0.935 | > 100 | 0.469 | – | 0.954 |
| COc1ccc(NC(=O)CC(=O)N2N=C(N(CCC#N)c3cccc(C)c3)CC2c2ccccc2)cc1 (configuration not stated) | > 100 | – | > 100 | > 100 | > 100 | > 100 | > 100 | > 100 | – | – | – | – | – | – | – | – | – | – | – | – |
| COc1ccc(-c2cc(-c3cc(C)ccc3O)[nH]c(=O)n2)cc1 | > 100 | – | > 100 | > 100 | > 100 | > 100 | > 100 | > 100 | > 100 | > 100 | – | – | – | – | – | – | – | – | – | – |
| CCC1CC(C)=CCN1S(=O)(=O)c1ccc(C)cc1 (configuration not stated) | > 100 | – | > 100 | 57.5 | 62.1 | – | 57.8 | 80.7 | – | 33.6 | – | – | – | – | – | – | – | – | – | – |
